Laboratory results published in patent EP4741383A1, “COMPOUND AND USE THEREOF AS ANTI-CANCER DRUG” (Tyligand Bioscience (Shanghai) Limited, priority 2023, dated 2025).

What was measured:
[1] = target: T1, SHP2 enzyme (catalytic domain, amino acid sequence 224-528) (Homo sapiens, UniProt Q06124); experiment: SHP2 enzyme inhibition assay (DiFMUP substrate, fluorescence); assay type: biochemical; conditions: for IC50: SHP2 catalytic domain, DiFMUP substrate, 30 min pre-incubation, read-out: S HP2 I C50; for SHP2 IC50 times lower than control compound 11a-1: relative to 11a-1, IC50 = 0.108 µM
T1 construct: purchased GenScript
T1 sequence (Q06124 224-528): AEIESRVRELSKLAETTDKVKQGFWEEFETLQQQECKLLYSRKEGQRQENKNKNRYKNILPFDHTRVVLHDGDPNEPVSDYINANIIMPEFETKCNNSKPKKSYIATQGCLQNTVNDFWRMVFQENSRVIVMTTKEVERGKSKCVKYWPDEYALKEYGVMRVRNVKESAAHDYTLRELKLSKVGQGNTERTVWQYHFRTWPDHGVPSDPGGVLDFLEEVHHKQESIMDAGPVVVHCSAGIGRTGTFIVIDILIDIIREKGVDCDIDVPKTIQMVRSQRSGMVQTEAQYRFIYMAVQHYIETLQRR
Procedure, shortened: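 SHP2 catalytic domain (aa 224-528) preincubated 30 min at room temperature with compounds (10-point 3-fold series) in HEPES pH 7.2 buffer with NaCl, EDTA, DTT, BSA, Brij35. DiFMUP from 50 µM working solution added, 5 min reaction; fluorescence 340/450 nm; IC50 from nonlinear dose-response fit.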

[2] = test system: KYSE520; experiment: CellTiter-Glo cell proliferation inhibition, KYSE520; assay type: cell-based, human; conditions: Homo sapiens, KYSE-520; KYSE520 cells, 120 hours, CellTiter-Glo
Description: In this study, the CellTiter-Glo® Luminescent Cell Viability Assay kit from Promega was used to evaluate the inhibitory effects of the disclosed compounds on the proliferation of cell lines KYSE520 (a human esophageal squamous cell carcinoma cell line dependent on SHP2 for growth), MeWo (a human malignant melanoma cell line), and MV4-11 (an RTK-mutant human acute monocytic leukemia cell line).
KYSE520 cells (Nanjing Kebaio Biotechnology Co., Ltd., Catalog #CBP60658) were thawed by rapidly shaking the cryovial in a 37 °C water bath to thaw within 1 minute. The thawed cell suspension was mixed homogeneously with RPMI 1640 medium (HyClone, Catalog #SH30027.01) containing 10% FBS (ExCell, Catalog #FND500), centrifuged at 1000 rpm for 5 minutes, and the supernatant was discarded. The cell pellet was resuspended in 5 mL of complete culture medium (RPMI 1640 medium containing 10% FBS) and placed in a cell culture flask with 25 cm^2 of bottom area, then cultured in a cell culture incubator at 37 °C, 95% humidity, and 5% CO2. Cell passaging was performed when the cell confluence reached approximately 80%. During cell passaging, the old culture medium was discarded, the cells were washed once with DPBS (Thermo Fisher, Catalog #14190-144), and 1 mL of trypsin (Thermo Fisher, Catalog #25200072) was added to digest the cells. When the cells dispersed into single cells and detached from the bottom of the culture flask, 3 mL of fresh complete culture medium was added to stop the digestion. After gently pipetting the cell suspension, 1/5 of the cell suspension was retained, 5 mL of fresh complete culture medium was added, and after mixing, the cells were placed in a cell culture flask for further culture. Cell plating was performed when the cell confluence again reached approximately 80%. During cell plating, following the cell passaging method, 1/5 of the cell suspension was retained for continued culture, and the remaining 4/5 of the cell suspension was placed in a 15 mL centrifuge tube. Cell viability was determined using the trypan blue exclusion method to ensure that cell viability was above 90%. A cell suspension with a density of 2.22 × 10^4 cells/mL was prepared using complete culture medium, and 135 µL of the cell suspension was added to a 96-well transparent flat-bottom black-walled cell culture plate (Greiner, Catalog #655090), resulting in a cell density of 3000 viable cells per well. A control group containing only complete culture medium without cells and compounds (i.e., culture medium control) and a control group containing cells but no compound (i.e., cell control) were set up. The cell plates were incubated overnight in a cell culture incubator. First, a 10 mM stock solution of the compound (Example compound and positive control compound 11a-1) in DMSO (Damas-beta, catalog #75927R) was serially diluted 3-fold to the 9th concentration, and a 10th concentration containing only DMSO (without compound) was also prepared as a control. Then, the DMSO solutions containing different concentrations of the compound were diluted 100-fold with complete culture medium, resulting in a 1% DMSO concentration in each solution. Finally, 15 µL of each solution was added to the corresponding wells of the cell culture plate, resulting in a starting compound concentration of 10 µM, with a 3-fold dilution between adjacent concentrations, and a final DMSO concentration of 0.1% in the cell culture plate. The cell plates were then incubated in the cell culture incubator for another 120 hours.
For endpoint detection, CellTiter-Glo reagent (Promega, catalog number #G7573, CellTiter-Glo® Luminescent Cell Viability Assay Kit) was melt and each cell plate was moved to room temperature for equilibration for 30 minutes. 75 µL (KYSE520 cells) or 50 µL (MeWo cells and MV 4-11 cells) of CellTiter-Glo was added to each well of the corresponding cell plate. The plates were shaken on a track-mounted shaker for 2 minutes to fully lyse the cells. […]

Compound	IC50 [1]	IC50 [2]	SHP2 IC50 times lower than control compound 11a-1 [1]
O=C(Nc1ccc(-c2ccsc2)cc1)C(=O)Nc1ccc(-c2cc3cnc(-c4nnn[nH]4)nc3n2C2CCC2)cc1 [Example 131]	0.026 µM		
O=C(Nc1ccc(-c2cc3cc(F)c(-c4nnn[nH]4)cc3n2C2CCC2)cc1)C(=O)Nc1ccc(N2CCC3(CCC(O)C3)C2)cc1 (stereo not drawn) [Example 92]	0.051 µM	0.13 µM	
CC1(n2c(-c3ccc(NC(=O)C(=O)Nc4ccc(N5CCC6(CCC(O)C6)CC5)cc4)cc3)cc3cc(F)c(-c4nnn[nH]4)cc32)CCC1 (stereo not drawn) [Example 101]	0.023 µM	0.128 µM	3-4 times
CC1(n2c(-c3ccc(NC(=O)C(=O)Nc4ccc(N5CCC6(CCOCC6)CC5)cc4)cc3)cc3cc(F)c(-c4nnn[nH]4)cc32)CCC1 [Example 77]	0.02 µM	0.049 µM	3-4 times
O=C(Nc1ccc(-c2csc(CO)c2)cc1)C(=O)Nc1ccc(-c2cc3cc(F)c(-c4nnn[nH]4)cc3n2C2CCC2)cc1 [Example 1]	0.066 µM	0.095 µM	
COC1CC(n2c(-c3ccc(NC(=O)C(=O)Nc4ccc(N5CCC6(CCC(O)C6)CC5)cc4)cc3)cc3cc(F)c(-c4nnn[nH]4)cc32)C1 (stereo not drawn) [Example 103]	0.141 µM	0.042 µM	
O=C(Nc1ccc(-c2cc3cc(F)c(-c4nnn[nH]4)cc3n2C2CCC2)cc1)C(=O)Nc1ccc(N2CC3(CCOCC3)C2)cc1 [Example 57]	0.068 µM	0.164 µM	
CC1(O)CC2CN(c3ccc(NC(=O)C(=O)Nc4ccc(-c5cc6cc(F)c(-c7nnn[nH]7)cc6n5C5(C)CCC5)cc4)cc3)CC2C1 (stereo not drawn) [Example 118]	0.045 µM	0.116 µM	
O=C(Nc1ccc(-c2cc3cc(F)c(-c4nnn[nH]4)cc3n2C2CCC2)cc1)C(=O)Nc1ccc(N2CCC(CO)CC2)cc1 [Example 23]	0.102 µM		
O=C(Nc1ccc(-c2ccsc2)cc1)C(=O)Nc1ccc(-c2cc3cc(F)c(-c4nnn[nH]4)nc3n2C2CCC2)cc1 [Example 132]	0.027 µM	1.1 µM	
O=C(Nc1ccc(-c2cc3cc(F)c(-c4nnn[nH]4)cc3n2C2CCC2)cc1)C(=O)Nc1ccc(N2CCC3(COC3)C2)cc1 [Example 59]	0.062 µM	0.119 µM	
O=C(Nc1ccc(-c2cc3cc(F)c(-c4nnn[nH]4)cc3n2C2CCC2)cc1)C(=O)Nc1ccc(N2CC3(CCCOC3)C2)cc1 [Example 55]	0.045 µM	0.108 µM	
N#CCc1cc(-c2ccc(NC(=O)C(=O)Nc3ccc(-c4cc5cc(F)c(-c6nnn[nH]6)cc5n4C4CCC4)cc3)cc2)cs1 [Example 2]	0.064 µM	0.141 µM	
O=C(Nc1ccc(-c2cc3cc(F)c(-c4nnn[nH]4)cc3n2C2CCC2)cc1)C(=O)Nc1ccc(N2CCC(CO)C2)cc1 (stereo not drawn) [Example 12]	0.048 µM	0.121 µM	
Cn1cc(-c2ccc(NC(=O)C(=O)Nc3ccc(-c4cc5cc(F)c(-c6noc(=O)[nH]6)cc5n4C4CCC4)cc3)cc2)cn1 [Example 123]	0.141 µM	0.243 µM	
CC1(CO)CCN(c2ccc(NC(=O)C(=O)Nc3ccc(-c4cc5cc(F)c(-c6nnn[nH]6)cc5n4C4CCC4)cc3)cc2)CC1 [Example 40]	0.06 µM	0.168 µM	
CC1(n2c(-c3ccc(NC(=O)C(=O)Nc4ccc(-c5cnn(C6CCOCC6)c5)cc4)cc3)cc3cc(F)c(-c4nnn[nH]4)cc32)CC1 [Example 7]	0.049 µM	0.071 µM	
CC1(O)CCC2(CCN(c3ccc(NC(=O)C(=O)Nc4ccc(-c5cc6cc(F)c(-c7nnn[nH]7)cc6n5C5(C)CCC5)cc4)cc3)CC2)CC1 [Example 111]	0.094 µM	0.105 µM	

Compound	IC50 [1]	IC50 [2]	SHP2 IC50 times lower than control compound 11a-1 [1]
O=C(Nc1ccc(-c2ccsc2)cc1)C(=O)Nc1ccc(-c2oc3cc(F)c(-c4nnn[nH]4)cc3c2C2CCC2)cc1 [Example 130]	0.025 µM	0.422 µM	
O=C(Nc1ccc(-c2cc3cc(F)c(-c4nnn[nH]4)cc3n2C2CCC2)cc1)C(=O)Nc1ccc(N2CCC3(CC2)CC(CO)C3)cc1 [Example 96]	0.058 µM	0.059 µM	
O=C(Nc1ccc(-c2cc3cc(F)c(-c4nnn[nH]4)cc3n2C2CCC2)cc1)C(=O)Nc1ccc(N2CC3CC(O)CC3C2)cc1 (stereo not drawn) [Example 116]	0.063 µM	0.092 µM	
O=C(Nc1ccc(-c2ccsc2)cc1)C(=O)Nc1ccc(-c2cc3cc(F)c(-c4nnn[nH]4)c(F)c3n2C2CCC2)cc1 [Example 134]	0.069 µM	0.334 µM	
O=C(Nc1ccc(-c2cc3cc(F)c(-c4nnn[nH]4)cc3n2C2CCC2)cc1)C(=O)Nc1ccc(N2CCC3(CCCOC3)C2)cc1 (stereo not drawn) [Example 62]	0.065 µM	0.193 µM	
CC1(n2c(-c3ccc(NC(=O)C(=O)Nc4ccc(N5CCC6(CCOC6)CC5)cc4)cc3)cc3cc(F)c(-c4nnn[nH]4)cc32)CCC1 [Example 68]	0.048 µM	0.057 µM	
CC1(O)CCC2(CC1)CN(c1ccc(NC(=O)C(=O)Nc3ccc(-c4cc5cc(F)c(-c6nnn[nH]6)cc5n4C4CCC4)cc3)cc1)C2 [Example 83]	0.058 µM	0.163 µM	
O=C(Nc1ccc(-c2cc3cc(F)c(-c4nnn[nH]4)cc3n2C2CCC2)cc1)C(=O)Nc1ccc(N2CCC3(CC(O)C3)C2)cc1 (stereo not drawn) [Example 89]	0.157 µM	0.062 µM	
O=C(Nc1ccc(-c2ccsc2)cc1)C(=O)Nc1ccc(-c2cc3ccc(-c4nnn[nH]4)nc3n2C2CCC2)cc1 [Example 129]	0.059 µM	2.85 µM	
O=C(Nc1ccc(-c2ccsc2)cc1)C(=O)Nc1ccc(-c2cc3ccc(-c4nnn[nH]4)cc3n2C2CCC2)cc1 [Example 122]	0.066 µM	4.36 µM	
CC1(n2c(-c3ccc(NC(=O)C(=O)Nc4ccc(N5CCC(CCO)CC5)cc4)cc3)cc3cc(F)c(-c4nnn[nH]4)cc32)CCC1 [Example 26]	0.061 µM	0.126 µM	
O=C(Nc1ccc(-c2cc3cc(F)c(-c4nnn[nH]4)cc3n2C2CCC2)cc1)C(=O)Nc1ccc(N2CCC3(CCOC3)C2)cc1 (stereo not drawn) [Example 61]	0.041 µM	0.126 µM	
CC1(n2c(-c3ccc(NC(=O)C(=O)Nc4ccc(N5CCC6(CC5)CC(CO)C6)cc4)cc3)cc3cc(F)c(-c4nnn[nH]4)cc32)CCC1 [Example 97]	0.105 µM	0.095 µM	
CC1(n2c(-c3ccc(NC(=O)C(=O)Nc4ccc(N5CCC6(CCOC6)CC5)cc4)cc3)cc3cc(F)c(-c4nnn[nH]4)cc32)CC1 [Example 70]	0.05 µM	0.085 µM	
CC1(O)CC2(CCN(c3ccc(NC(=O)C(=O)Nc4ccc(-c5cc6cc(F)c(-c7nnn[nH]7)cc6n5C5(C)CCC5)cc4)cc3)CC2)C1 [Example 95]	0.061 µM	0.113 µM	
O=C(Nc1ccc(-c2ccsc2)cc1)C(=O)Nc1ccc(-c2cc3cc(F)c(-c4nnn[nH]4)cc3n2C2CCC2)cc1 [Example 4]	0.029 µM		3-4 times
O=C(Nc1ccc(-c2cc3cc(F)c(-c4nnn[nH]4)cc3n2C2CCC2)cc1)C(=O)Nc1ccc(N2CCOCC2)cc1 [Example 47]	0.063 µM		
